Where a SMILES comes first, the peptide text is derived from it. [ ]: non-standard residue; d: D form.
Columns and labels:
Treg cells = test: Treg pre-treated with peptide, then Treg suppression assay; format: cell-based; conditions: Treg incubated with peptide at 20 μM for 24 hours, washed
Source text: (§1) FOXP3 is critical for the development and function of Tregs, but also, FOXP3 can be transiently expressed in effector T cells after TCR stimulation leading to hyporesponsiveness of the effector T cell. […] We speculate that the Foxp3 inhibitory peptides may work at two levels: (i) reducing Treg function and (ii) releasing the brake of FOXP3 transient expression on effector T cells. Thus, we studied the effect of CM-1315 in T cell proliferation and IL-2 and IFN-γ production in effector T cells in response to anti-CD3 stimulation. The original P60, the optimized peptide CM-1315 and a control peptide were tested. […] We also studied the effect of the peptides directly in Tregs. Thus, freshly isolated Treg cells were pre-treated with the peptides for 24 h, and after extensive washing, they were used in conventional Treg suppression assay in coculture with effector T cells and anti-CD3 stimulation.
(§2) Supplementary Figure 4: Effect of Foxp3 inhibitory peptides in effector T cells alone. […] T cell proliferation (A) and IL-2 and IFN-γ (B and C) production in response to anti-CD3 stimulation was measured by 3H-thymidine incorporation and by ELISA respectively.
(§3) Supplementary Figure 5: Effect of FOXP3 inhibitory peptides in Treg cells. […] T cell proliferation was measured by 3H-thymidine incorporation assay. […]

CD4+CD25-ve splenocytes = test: Effector T cells alone stimulated with anti-CD3: proliferation, IL-2 and IFN-γ; format: cell-based; conditions: anti-CD3 stimulation, no Treg
Source text: as §1, §2, §3

[1] = Metabolic stability in mouse liver microsomes; format: in vitro ADME; conditions: 1 μM, estimated by first order kinetics
Protocol: (§4) Metabolic stability was measured by Wuxi AppTech (Shanghai, China). Briefly, peptides (1 μM, 5% MeOH in potassium phosphate buffer) were incubated with human (catalogue no. 452161 from BD Gentest) and mouse (catalogue no. M1000, Xenotech) liver microsomes at 37°C for 10 min. Liver microsomes were at a final assay concentration of 0.7 mg protein/mL. The reaction was started by the addition of 90 μL of NADP cofactor solution and stopped by the addition of 300 μL of stop solution (acetonitrile at 4°C, including 100 ng/mL tolbutamide as an internal standard) after 20 min of incubation. The samples were shaken for 5 min and then centrifuged for 20 min at 1500 g. A 100 μL aliquot of the supernatant was transferred to eight new 96-well plates with 300 μL of HPLC water and centrifuged at 1500 g for LC-MS/MS analysis (Shimadzu LC 10-AD−API 4000). An injection volume of 10 μL was added to a Phenomenex Synergi C18 column eluting with formic acid in water or acetonitrile at a flow rate of 800 μL/min. The percent loss of parent compound was calculated from the peak area ratio of the analyte/internal standard. Compounds and positive controls were tested in duplicate.

[2] = Metabolic stability in human liver microsomes; format: in vitro ADME; conditions: 1 μM, estimated by first order kinetics
Protocol: as §4

[3] = test system: AH1-specific IFN-γ producing cells; test: AH1 immunization in CD25+ depleted mice, IFN-γ ELISPOT; format: in vivo; conditions: mice depleted of CD25+ T cells, CM-1315 day 1 to day 7
Source text: We also studied the effect of CM-1315 peptide in vivo to improve the immune response after immunization with AH1 peptide in naïve mice and in mice depleted of CD25+ T cells. In this experiment, depletion of CD25+ T cells improved the number of AH1-specific IFN-γ producing cells.
Supplementary Figure 6: In vivo the effect of CM-1315 peptide to improve the immunogenicity of AH1 peptide vaccine.
AH1 peptide, encompassing a cytotoxic T cell epitope for H-2Ld MHC class I molecule, was emulsified in Incomplete Freund adjuvant as previously described and used to immunize groups of naïve mice and in mice depleted of CD25+ T cells (n = 4). A group of CD25 depleted mice was immunized with AH1 and treated with CM-1315 peptide from day 1 to day 7 after immunization. Ten days after, immune response against AH1 was measured by ELISPOT assay to quantify the number of IFN-γ producing cells.
(1 picture or pasted object on this page, not shown here)

CT26 tumor cells = test: AH1 vaccination and CT26 tumor challenge; format: in vivo, BALB/c mice; conditions: AH1 in IFA, peptide 10 nanomol/mice/day i.p. 10 days, challenge 10^6 CT26 cells s.c. day 10
Protocol: In those experiments, BALB/c mice were immunized with peptide AH1 emulsified in IFA and treated daily with saline or with 50 nanomol/mice/day of peptide P60 i.p. from day 0 to day 9 after immunization. To study the efficacy of CM-1315, our optimized version of P60, mice immunized with AH1 were treated with 10 nanomol/mice/day of P60 or CM-1315 and challenged at day 10 by s.c. injection with 10^6 CT26 tumor cells (instead of 5 × 10^5 cells used in our previous study). As control, groups of mice were injected with AH1 alone or left untreated.
For tumor rejection experiments, Hepa-129 cells (10^6 cells/mouse), were injected subcutaneously (sc) in C3H/HeN mice (n = 6). Ten days later, when the tumor reached 5 mm in diameter, mice were randomly divided into different experimental groups. A group of mice were treated i.p. with anti-PD1 antibodies (50 μg/mouse). Antibody administration was repeated one week after this first administration. A group of mice treated with anti-PD1 also received the cyclic peptide CM-1215 from days 10 to 20 (50 μg/mice/day). Tumor size, presented as the average of two perpendicular diameters (millimetres), was measured at regular intervals. Mice were sacrificed when the mean tumor diameter was greater than 20 mm. […] Tumor size was monitored twice a week with a calliper and it was expressed according to the formula V = (length × width^2)/2. […]

half-life [1]: ~1 h | half-life [2]: ~1 h
SMILES: CSCC[C@@H]1NC(=O)[C@H](C)NC(=O)[C@H](Cc2ccccc2)NC(=O)[C@H](Cc2ccccc2)NC(=O)[C@@H]2CCCN2C(=O)[C@H](Cc2c[nH]c3ccccc23)NC(=O)[C@H](CCSC)NC(=O)[C@H](CCCCN)NC(=O)[C@H](CCCNC(=N)N)NC(=O)[C@H](Cc2ccccc2)NC(=O)[C@H](C)NC(=O)[C@H](CCC(N)=O)NC(=O)[C@H](Cc2ccccc2)NC(=O)[C@@H](C)NC(=O)[C@H](CCCNC(=N)N)NC1=O [CM-1315] (cyclo(R[dA]FQAFRKMWPFFAM))
Inhibition of suppressive activity of pre-treated Treg (in words) (Treg cells): able to inhibit significantly the suppressive activity of Treg | T cell proliferation and IL-2, IFN-γ production of effector T cells (in words) (CD4+CD25-ve splenocytes): more active than P60 | Number of AH1-specific IFN-γ producing cells (in words) [3]: significantly improved this response | Protection against CT26 tumor challenge (in words) (CT26 tumor cells): remained protected against challenge with CT26 tumor cells
